Assay results from patent publication US11839679B2, “Gamma-diketones for treatment and prevention of aging skin and wrinkles” (BioSplice Therapeutics, Inc., priority 2014, dated 2023).

Test system: fine lines, wrinkles in the outer canthus of the eyes (crow's feet area)
Assay: Panelist self-assessment questionnaire, Example 1
Format: in vivo, human
Design: key to Q2 appearance of my skin around either of my eyes, Score: 1: Better; 2: Little better; 3: Same; 4: Little worse; 5: Worse
Conditions: for Q3 how do you feel about the treated area surrounding your eyes and the appearance of wrinkles, % Responders Score 3: Score 3 = Neither satisfied or dissatisfied; for Q2 appearance of my skin around either of my eyes, % Responders Score 3: Score 3 = Same; for Q4 any discomfort, other than slight tingling, in the treated area during the study, % Responders Score 3: Score 3 = Yes, occasional discomfort lasting more than one hour; for Q1 My wrinkles in the eye area have improved, % Responders Score 4: Score 4 = Disagree; for Q3 how do you feel about the treated area surrounding your eyes and the appearance of wrinkles, % Responders Score 4: Score 4 = Dissatisfied; for Q2 appearance of my skin around either of my eyes, % Responders Score 4: Score 4 = Little worse; for Q4 any discomfort, other than slight tingling, in the treated area during the study, % Responders Score 4: Score 4 = Yes, every day lasting less than an hour; for Q1 My wrinkles in the eye area have improved, % Responders Score 5: Score 5 = Strongly disagree; for Q3 how do you feel about the treated area surrounding your eyes and the appearance of wrinkles, % Responders Score 5: Score 5 = Very Dissatisfied; for Q2 appearance of my skin around either of my eyes, % Responders Score 5: Score 5 = Worse; for Q4 any discomfort, other than slight tingling, in the treated area during the study, % Responders Score 5: Score 5 = Yes, everyday lasting more than an hour
Protocol: Three groups of women were recruited to evaluate and compare the efficacy of three anti-aging test products (targeting the periorbital eye area) intended to reduce the appearance of fine lines, wrinkles in the outer canthus of the eyes (crow's feet area) over a 12 week period. Wrinkle assessment was conducted instrumentally using a Visioscan image analysis system. Effectiveness of the test product was evaluated using panelist self-assessment via questionnaire responses comprised of 3-4 questions (Q1, Q2, Q3 & Q4). Each stage in the progression of treatments was photographically documented using a High Resolution Scientifically Matched Photography technique. Image analysis was utilized to quantify changes in fine lines and crow's feet condition observed in the Scientifically Matched Photographs.
Subject Selection: • Number: Six subjects (two per group) to complete the study. • Sex: Females • Race: Caucasian/Asian/Hispanic • Age Range: 40 through 60 years old
Test samples: • Topical 0.15% of Compound #222 in Oil (a 50/50 mixture of • Propylene Glycol Dicaprylate/Dicaprate and Caprylic/Capric Triglyceride) (Cohort 1) • Topical 0.15% of Compound #222 in PEG400 (Cohort 2) • Topical 0.05% of Compound #222 in PEG400 (Cohort 3)
All subjects were instructed to use the test material once a day, as part of their daily skin care routine. Immediately following baseline evaluations, the subjects were issued the product with the following instructions:
GROUP 1—Compound #222 Topical 0.15% in oil (Cohort 1): The subjects were instructed to hold the bottle at an angle such that the roller-ball was at bottom and apply the roller-ball to the periorbital area, including the crow's feet area, 2-3 times, starting from the area under the eye (and above the cheekbone) and moving up towards the outer tip of the eye-brow. After 2-3 rolls, they were able to see wetness on the treated area. This procedure was repeated for the other eye.
GROUPS 2 & 3 Compound #222 Topical 0.15% in PEG (Cohort 2) & Compound #222 Topical 0.05% in PEG (Cohort 3): The subjects were instructed to hold the dispenser upright with one hand and with the tip of the index finger on the pump (similar to holding a spray container), pour a small amount of the product into the palm of their other hand by pumping once or twice. The product was then applied on to the periorbital area, including the crow's feet area, of both eyes with their index finger.
[…] After acclimating to ambient conditions, High Resolution Scientifically Matched Photographs were be taken and biophysical measurements (Surface Evaluation of Living Skin via Visioscan) were repeated using the standard template to identify test sites on the face. In addition (during the acclimation period) all participants were be asked to fill out a self-assessment questionnaire.
The source data was Visioscan and PhotoGrammetrix Image Analysis readings along with subjective assessments, which were totaled and reported as average scores. Photographs were placed side by side as to compare the photographs of before and after application of the test product in the eye area. Wrinkle reduction analysis source data consisted of crow's feet area quantification in relative units (px), collected at baseline and, the week 2, 4, 8 and 12 evaluations. The data obtained via Visioscan and from PhotoGrammetrix Image Analysis was quoted as % differences from baseline at each of the previously described time points. A paired t-test analysis was conducted in order to compare the results of post test product application measurements to baseline measurements where applicable. Statistical significance was established if p≤(α=0.05) was calculated.

[1] = Day 7, Topical 0.05% in PEG (Cohort 3)
[2] = Day 7, Topical 0.15% in Oil (Cohort 1)
[3] = Day 7, Topical 0.15% in PEG (Cohort 2)
[4] = Day 14, Topical 0.05% in PEG (Cohort 3)
[5] = Day 14, Topical 0.15% in Oil (Cohort 1)
[6] = Day 14, Topical 0.15% in PEG (Cohort 2)

O=C(CCC(=O)c1ccc2c(c1)OCO2)c1ccccc1 [#222]
Q3 how do you feel about the treated area surrounding your eyes and the appearance of wrinkles, % Responders Score 3 [1]: 50% | Q3 how do you feel about the treated area surrounding your eyes and the appearance of wrinkles, % Responders Score 3 [2]: 50% | Q3 how do you feel about the treated area surrounding your eyes and the appearance of wrinkles, % Responders Score 3 [3]: 50% | Q3 how do you feel about the treated area surrounding your eyes and the appearance of wrinkles, % Responders Score 3 [4]: 0% | Q3 how do you feel about the treated area surrounding your eyes and the appearance of wrinkles, % Responders Score 3 [5]: 50% | Q3 how do you feel about the treated area surrounding your eyes and the appearance of wrinkles, % Responders Score 3 [6]: 0% | Q2 appearance of my skin around either of my eyes, % Responders Score 3 [1]: 0% | Q2 appearance of my skin around either of my eyes, % Responders Score 3 [2]: 50% | Q2 appearance of my skin around either of my eyes, % Responders Score 3 [3]: 50% | Q2 appearance of my skin around either of my eyes, % Responders Score 3 [4]: 0% | Q2 appearance of my skin around either of my eyes, % Responders Score 3 [5]: 50% | Q2 appearance of my skin around either of my eyes, % Responders Score 3 [6]: 50% | Q4 any discomfort, other than slight tingling, in the treated area during the study, % Responders Score 3 [1]: 0% | Q4 any discomfort, other than slight tingling, in the treated area during the study, % Responders Score 3 [2]: 0% | Q4 any discomfort, other than slight tingling, in the treated area during the study, % Responders Score 3 [3]: 0% | Q4 any discomfort, other than slight tingling, in the treated area during the study, % Responders Score 3 [4]: 0% | Q4 any discomfort, other than slight tingling, in the treated area during the study, % Responders Score 3 [5]: 0% | Q4 any discomfort, other than slight tingling, in the treated area during the study, % Responders Score 3 [6]: 0% | Q1 My wrinkles in the eye area have improved, % Responders Score 4 [1]: 0% | Q1 My wrinkles in the eye area have improved, % Responders Score 4 [2]: 0% | Q1 My wrinkles in the eye area have improved, % Responders Score 4 [3]: 50% | Q1 My wrinkles in the eye area have improved, % Responders Score 4 [4]: 0% | Q1 My wrinkles in the eye area have improved, % Responders Score 4 [5]: 50% | Q1 My wrinkles in the eye area have improved, % Responders Score 4 [6]: 50% | Q3 how do you feel about the treated area surrounding your eyes and the appearance of wrinkles, % Responders Score 4 [1]: 0% | Q3 how do you feel about the treated area surrounding your eyes and the appearance of wrinkles, % Responders Score 4 [2]: 0% | Q3 how do you feel about the treated area surrounding your eyes and the appearance of wrinkles, % Responders Score 4 [3]: 0% | Q3 how do you feel about the treated area surrounding your eyes and the appearance of wrinkles, % Responders Score 4 [4]: 0% | Q3 how do you feel about the treated area surrounding your eyes and the appearance of wrinkles, % Responders Score 4 [5]: 0% | Q3 how do you feel about the treated area surrounding your eyes and the appearance of wrinkles, % Responders Score 4 [6]: 50% | Q2 appearance of my skin around either of my eyes, % Responders Score 4 [1]: 0% | Q2 appearance of my skin around either of my eyes, % Responders Score 4 [2]: 0% | Q2 appearance of my skin around either of my eyes, % Responders Score 4 [3]: 0% | Q2 appearance of my skin around either of my eyes, % Responders Score 4 [4]: 0% | Q2 appearance of my skin around either of my eyes, % Responders Score 4 [5]: 0% | Q2 appearance of my skin around either of my eyes, % Responders Score 4 [6]: 0% | Q4 any discomfort, other than slight tingling, in the treated area during the study, % Responders Score 4 [1]: 0% | Q4 any discomfort, other than slight tingling, in the treated area during the study, % Responders Score 4 [2]: 0% | Q4 any discomfort, other than slight tingling, in the treated area during the study, % Responders Score 4 [3]: 0% | Q4 any discomfort, other than slight tingling, in the treated area during the study, % Responders Score 4 [4]: 0% | Q4 any discomfort, other than slight tingling, in the treated area during the study, % Responders Score 4 [5]: 0% | Q4 any discomfort, other than slight tingling, in the treated area during the study, % Responders Score 4 [6]: 50% | Q1 My wrinkles in the eye area have improved, % Responders Score 5 [1]: 0% | Q1 My wrinkles in the eye area have improved, % Responders Score 5 [2]: 50% | Q1 My wrinkles in the eye area have improved, % Responders Score 5 [3]: 0% | Q1 My wrinkles in the eye area have improved, % Responders Score 5 [4]: 0% | Q1 My wrinkles in the eye area have improved, % Responders Score 5 [5]: 0% | Q1 My wrinkles in the eye area have improved, % Responders Score 5 [6]: 0% | Q3 how do you feel about the treated area surrounding your eyes and the appearance of wrinkles, % Responders Score 5 [1]: 0% | Q3 how do you feel about the treated area surrounding your eyes and the appearance of wrinkles, % Responders Score 5 [2]: 0% | Q3 how do you feel about the treated area surrounding your eyes and the appearance of wrinkles, % Responders Score 5 [3]: 0% | Q3 how do you feel about the treated area surrounding your eyes and the appearance of wrinkles, % Responders Score 5 [4]: 0% | Q3 how do you feel about the treated area surrounding your eyes and the appearance of wrinkles, % Responders Score 5 [5]: 0% | Q3 how do you feel about the treated area surrounding your eyes and the appearance of wrinkles, % Responders Score 5 [6]: 0% | Q2 appearance of my skin around either of my eyes, % Responders Score 5 [1]: 0% | Q2 appearance of my skin around either of my eyes, % Responders Score 5 [2]: 0% | Q2 appearance of my skin around either of my eyes, % Responders Score 5 [3]: 0% | Q2 appearance of my skin around either of my eyes, % Responders Score 5 [4]: 0% | Q2 appearance of my skin around either of my eyes, % Responders Score 5 [5]: 0% | Q2 appearance of my skin around either of my eyes, % Responders Score 5 [6]: 0% | Q4 any discomfort, other than slight tingling, in the treated area during the study, % Responders Score 5 [1]: 0% | Q4 any discomfort, other than slight tingling, in the treated area during the study, % Responders Score 5 [2]: 0% | Q4 any discomfort, other than slight tingling, in the treated area during the study, % Responders Score 5 [3]: 0% | Q4 any discomfort, other than slight tingling, in the treated area during the study, % Responders Score 5 [4]: 0% | Q4 any discomfort, other than slight tingling, in the treated area during the study, % Responders Score 5 [5]: 0% | Q4 any discomfort, other than slight tingling, in the treated area during the study, % Responders Score 5 [6]: 0% | Q2 appearance of my skin around either of my eyes, Score (Subject #1, Day 7, Topical 0.15% in Oil (Cohort 1)): 3 | Q2 appearance of my skin around either of my eyes, Score (Subject #1, Day 14, Topical 0.15% in Oil (Cohort 1)): 3 | Q2 appearance of my skin around either of my eyes, Score (Subject #2, Day 7, Topical 0.15% in Oil (Cohort 1)): 2 | Q2 appearance of my skin around either of my eyes, Score (Subject #2, Day 14, Topical 0.15% in Oil (Cohort 1)): 2 | Q2 appearance of my skin around either of my eyes, Score (Subject #3, Day 7, Topical 0.15% in PEG (Cohort 2)): 2 | Q2 appearance of my skin around either of my eyes, Score (Subject #3, Day 14, Topical 0.15% in PEG (Cohort 2)): 2 | Q2 appearance of my skin around either of my eyes, Score (Subject #4, Day 7, Topical 0.15% in PEG (Cohort 2)): 3 | Q2 appearance of my skin around either of my eyes, Score (Subject #4, Day 14, Topical 0.15% in PEG (Cohort 2)): 3 | Q2 appearance of my skin around either of my eyes, Score (Subject #5, Day 7, Topical 0.05% in PEG (Cohort 3)): 1 | Q2 appearance of my skin around either of my eyes, Score (Subject #5, Day 14, Topical 0.05% in PEG (Cohort 3)): 1 | Q2 appearance of my skin around either of my eyes, Score (Subject #6, Day 7, Topical 0.05% in PEG (Cohort 3)): 2 | Q2 appearance of my skin around either of my eyes, Score (Subject #6, Day 14, Topical 0.05% in PEG (Cohort 3)): 2
